According to patent US20210353681A1, “USE OF TNKS INHIBITORS FOR REGENERATION OF CARTILAGE” (SEOUL NATIONAL UNIVERSITY R&DB FOUNDATION, priority 2020, published 2021):

Tests used:
[1] = system: mouse limb-bud mesenchymal cells; assay: Mouse limb-bud micromass culture, Alcian Blue staining; type: cell-based; settings: micromass cultures, treated 3 days
Method: Mouse limb-bud micromass culture. For the micromass culture of mesenchymal cells, limb-bud cells were isolated from E11.5 ICR mouse embryos. 2.0×10^7 cells/ml were suspended in DMEM supplemented with 10% FBS, 100 units/ml penicillin, and 100 μg/ml streptomycin, and 15-μ1 drops were spotted on culture dishes. After 24 h, cells were treated as indicated for 3 days and subjected to Alcian Blue staining.

[2] = system: articular cartilage of DMM-operated mouse; assay: Experimental OA in mice (DMM surgery), intra-articular hydrogel drug delivery; type: in vivo; settings: for degeneration of cartilage matrix caused by DMM (Safranin O staining, OARSI grade): IA administration in hydrogel, 10 nmol drug
Method: Preparation of hydrogels and in vivo confirmation of controlled release of embedded molecules. 6-O-Palmitoyl-l-ascorbic acid (76183) was purchased from Sigma-Aldrich. […] PBS-suspended hydrogel (10 μl, PBS:hydrogel=1:1) containing 50 pmol DiD was administered intra-articularly, and at 1-9 days post-injection, light-emitting diode (LED) and fluorescence images of knee joints were obtained. LuminoGraph II (Atto) was used to acquire the images.
Experimental OA in mice. Eight-week-old male ICR mice were used for experimental OA. Experimental OA was induced by DMM (Destabilization of the medial meniscus) surgery on the right hindlimb, and sham surgery was conducted on the left hindlimb as a control (Glasson, S. S., Blanchet, T. J. & Morris, E. A. The surgical destabilization of the medial meniscus (DMM) model of osteoarthritis in the 129/SvEv mouse. Osteoarthritis Cartilage 15, 1061-1069, doi:10.1016/j.joca.2007.03.006 (2007)). 10 μl of PBS-suspended hydrogel (PBS:hydrogel=1:1) containing vehicle or 10 nmol drugs was administered intra-articularly.
Histology and immunohistochemistry. Mouse and rat knee joint samples and human cartilage samples were fixed with 4% paraformaldehyde overnight at 4° C. All samples were […] for 2-4 weeks 0.5M EDTA, pH 7.4 at 4° C. and embedded in paraffin. Mouse and rat paraffin blocks were sectioned at a thickness of 6 μm, and human paraffin blocks were sectioned to a thickness of 5 μm. […] Cartilage regeneration in osteochondral defect model was scored according to the International Cartilage Repair Society (ICRS) scoring system (Haikarainen, T., Krauss, S. & Lehtio, L. Tankyrases: structure, function and therapeutic implications in cancer. Curr Pharm Des 20, 6472-6488 (2014) and Mainil-Varlet, P. et al. Histological assessment of cartilage repair: a report by the Histology Endpoint Committee of the International Cartilage Repair Society (ICRS). J Bone Joint Surg Am 85-A Suppl 2, 45-57 (2003)) by three blinded observers.

mouse chondrocytes = assay: RNA sequencing and gene set enrichment analysis of treated chondrocytes; type: cell-based; settings: drugs 10 μM for 108 h vs vehicle; siRNAs vs control siRNA
Method: RNA sequencing (RNA-seq). Primary cultured mouse articular chondrocytes were treated with DMSO or 10 μM of XAV939 or IWR-1 for 108 h or transfected with control siRNA or Tnks and Tnks2 siRNAs. Three biological replicates were used for each group. One microgram of high-quality RNA samples (RIN>7.0) were used to construct RNA-seq libraries with the TruSeq Stranded mRNA Library Prep kit (Illumina). Libraries were validated with an Agilent 2100 Bioanalyzer. RNA-seq was performed on an Illumina HiSeq 2500 sequencer at Macrogen. The sequence reads were trimmed with Trimmomatic^86 and mapped against the mouse reference genome (mm10) using TopHat. Read counts per gene were calculated using HTSeq^88. Differential expression analysis was conducted using the DESeq2 R package^89. DEGs were selected using a |fold change| cutoff of >3 and a FDR q cutoff of <1×10^−5. DEGs at least one condition were clustered with hierarchical clustering algorithm (ward.D linkage with euclidean distance) using gplots R package. GO analysis was conducted using Enrichr^90. Heatmaps of DEGs that are in the cartilage-signature gene set or the osteoarthritis-signature gene sets were drawn with Gitools.
GSEA analysis. Genes were ranked according to the shrunken log2 fold change calculated via DESeq2. […]

[3] = system: primary cultured mouse chondrocytes; assay: mRNA and protein levels of cartilage-specific matrix genes in primary cultured mouse chondrocytes; type: cell-based; settings: for expression of cartilage-specific matrix genes: chondrocytes treated with drugs, mRNA and protein levels (FIG. 1f, g)
Method: Primary culture of mouse articular chondrocytes. For the primary culture of mouse articular chondrocytes, cells were isolated from femoral condyles and tibial plateaus of 4-5-day-old ICR mice, as described previously^83. Chondrocytes were maintained in DMEM supplemented with 10% fetal bovine serum (FBS), 100 units/ml penicillin, and 100 μg/ml streptomycin, and cells were treated as indicated in each experiment. Transfection was performed with […] PRO (Biontex) according to the manufacturer's protocol. All siRNAs, including negative control siRNA, were purchased from Bioneer. Recombinant mouse Wnt-3a (315-20) was purchased from PeproTech, and recombinant mouse Dkk-1 (5897-DK) was purchased from R&D Systems.
RT-PCR and qPCR. Total RNAs were extracted using TRI reagent (Molecular Research Center, Inc.). RNAs were reverse transcribed using EasyScript Reverse Transcriptase (Transgen Biotech). Then, cDNA was amplified by PCR or qPCR with the primers listed in Table 2. qPCR was performed with SYBR TOPreal qPCR 2× preMIX (Enzynomics) to determine transcript abundance. Transcript quantity was calculated using the ΔΔCt method, and Hprt or HPRT1 levels were used as housekeeping controls. The log 2 (fold change) value of the cartilage stromal gene of mouse articular chondrocytes treated with siRNA was clustered using a hierarchical clustering algorithm (mean association and central correlation distance) in 1.0.4 R package. PCA was performed using the same R package.
Whole-cell lysate preparation. Whole-cell lysates were prepared in RIPA buffer (150 mM NaCl, 1% NP-40, 50 mM Tris, pH 8.0, 0.5% sodium deoxycholate, 0.1% SDS) supplemented with a protease inhibitor cocktail (Sigma-Aldrich).

O=c1[nH]c(-c2ccc(C(F)(F)F)cc2)nc2c1CSCC2 [XAV939, 3,5,7,8-Tetrahydro-2-[4-(trifluoromethyl)phenyl]-4H-thiopyrano[4,3-d]pyrimidin-4-one]
chondrogenic nodule formation [1]: effectively induced chondrogenic nodule formation | degeneration of cartilage matrix caused by DMM (Safranin O staining, OARSI grade) [2]: significant reduction in the degeneration of cartilage matrix | cartilage destruction in late-stage OA (Safranin O staining, OARSI grade) ([2]; treatment started 6 weeks after DMM surgery, for additional 6 weeks, compared with vehicle-treated mice): reduction in the cartilage destruction | enrichment of cartilage-signature genes in whole transcriptome (GSEA) (mouse chondrocytes): positively enriched | expression of cartilage-specific matrix genes [3]: increased the expression of cartilage-specific matrix genes

C[C@]1(c2nc3c(C(N)=O)cccc3[nH]2)CCCN1 [ABT-888]
expression of cartilage-specific matrix genes [3]: failed to increase their expressions

Cc1cc(/C=C2\SC(=O)N(c3ccccc3)C2=O)c(C)n1-c1cccnc1 [iCRT 1429]
expression of cartilage matrisome ([3]; β-catenin inhibition in chondrocytes (FIG. 2e, f, g), iCRT 14 for 24 h): did not significantly affect the expression of cartilage matrisome

O=C(Nc1cccc2cccnc12)c1ccc(N2C(=O)C3C4C=CC(C4)C3C2=O)cc1 (centres unmarked) [IWR-1, 4-(1,3,3a,4,7,7a-Hexahydro-1,3-dioxo-4,7-methano-2H-isoindol-2-yl)-N-8-quinolinyl-Benzamide]
chondrogenic nodule formation [1]: effectively induced chondrogenic nodule formation | degeneration of cartilage matrix caused by DMM (Safranin O staining, OARSI grade) [2]: significant reduction in the degeneration of cartilage matrix | enrichment of cartilage-signature genes in whole transcriptome (GSEA) (mouse chondrocytes): positively enriched | expression of cartilage-specific matrix genes [3]: increased the expression of cartilage-specific matrix genes
